Source: patent US10821091B2, “Retinoid compositions and methods of increasing immune cell-mediated killing of IDH mutant cancer cells” (UNIVERSITY OF PITTSBURGH—OF THE COMMONWEALTH SYSTEM OF …, priority 2017, dated 2020)

What was measured:
IDH mutant tumors = assay: Flow cytometry of tumor-infiltrating lymphocytes (TILs); type: in vivo; conditions: IDH mutant tumor-bearing mice, vs DMSO-treated controls
Description: Flow cytometry for TILs. IDH WT and mutant tumors were dissociated to form a single cell suspension (SCS). The SCS was then overlaid onto sucrose gradient (Lympholyte-M) and centrifuged at 2400 rpm for 20 minutes. Immune cells at the interphase of the 2 liquids were collected and washed once with PBS. The cells were then stained with appropriate antibodies and acquired on a BD LSR Fortessa flow cytometer. Briefly, cells were washed with PBS and stained with 1 μg antibody for 30 minutes at 4° C. After incubation, the cells were washed three times with FACS buffer (PBS+10% FBS+0.1% Na-azide), resuspended in a final volume of 200 μl of FACS buffer and run through the flow cytometer. Flow cytometry data was analyzed on the Flowjo® v9.1 software. Antibodies used for flow cytometry were as follows: CD45- PE-Cy7, NKp46-FITC, CD11b-APC-Cy7, Gr-1-APC, F4/80-eFluor450, Ly6-c-PerCP-Cy5.5 and CD11c-PE.
(§1) ATRA promotes tumor stasis in IDH mutant tumor-bearing mice. To determine the value of ATRA as a therapeutic modality, its anti-tumor efficacy in vivo was evaluated. Athymic nude mice were implanted with 10^6 IDH mutant or WT primary glioma cells in the flank. 21 days after tumor inoculation (when tumors were about 25 mm^2), 10 mg/kg ATRA was administered every other day for 21 days. Tumors were measured every 3 days. […] Resected tumors from ATRA or DMSO-treated mice were digested to obtain single cell suspensions and assessed for killing by human and mouse NK cells ex vivo.

[1] = tested on: CCL2 and CXCL12 in IDH mutant cells; assay: Chemokine array on culture supernatants; type: cell-based, human
Description: ATRA increases chemotaxis towards IDH mutant cells in a CCL2-dependent manner. […] To confirm these findings, chemotaxis assays were performed in vitro. ATRA-treated IDH mutant or WT cells were plated in the bottom well of a transwell. Different immune cell subsets (as indicated) were placed in the top chamber at a 10:1 E:T ratio. After 48 hours, cells from the bottom chamber were harvested and analyzed by flow cytometry. […] To evaluate the mechanisms of changes in chemotaxis induced by ATRA, a chemokine array was performed. Supernatants from ATRA- (or DMSO)-treated WT and IDH mutant cultures were used to assess changes in chemokine expression using a chemokine array kit (R&D systems). Results were interpreted visually as well as quantified using an imaging software (ImageJ). […] To substantiate the role of CCL2 in NK and T cell chemotaxis, transwell assays were repeated as described earlier, in the presence of CCL2-blocking antibody (R&D systems).

[2] = tested on: ATRA-treated IDH mutant tumors; assay: Ex vivo NK killing of resected tumors; type: cell-based, mice; conditions: vs DMSO-treated control tumors
Description: as §1

IDH mutant cells = assay: NK cytotoxicity assay (CFSE/7-AAD flow cytometry) on ATRA-treated glioma cells; type: cell-based, human
Description: All-trans Retinoic acid (ATRA) treatment of astrocytes and primary glioma cells. ATRA was purchased from Sigma Aldrich® and reconstituted in DMSO. ATRA was added at a 1 μM final concentration to cell culture medium for 48 hours. After treatment, the cells either lysed in Trizol™ for qPCR analysis, or were used in NK cytotoxicity assays.
NK-92 cell culture. For some experiments, NK92 cells were used instead of donor NK cells. NK92 cells (ATCC® CRL-2407™) were obtained from ATCC. […] Fresh medium was added every 2-3 days and once a week, the cells were counted and re-suspended at a final concentration of 5×10^5 cells/mL in fresh medium.
NK cytotoxicity assay. […] After 6 h incubation, the cells were stained with 0.25 μg/ml of 7-AAD and analyzed by flow cytometry.
ATRA induced increased cytotoxic killing of IDH mutant cells in an NKG2D-ligand dependent manner. The ability of ATRA to sensitize IDH mutant cells to killing by NK cells was evaluated. For this purpose, IDH mutant and WT cells were treated with 1 μM ATRA for 48 hours and assessed for killing by NK-92 cells (ATCC) at a 10:1 E:T ratio. […] ATRA-treated cells were also evaluated for expression of NKG2D ligands.

[3] = tested on: IDH mutant primary glioma cells; assay: Tumor growth in athymic nude mice with flank glioma tumors; type: in vivo
Description: Mice. 6-8 week old Balb/c nude mice (CAnN.Cg-Foxn1nu/Crl) were purchased from Charles River Laboratories. Mice were injected with 10^6 IDH WT or mutant primary glioma cells sub-cutaneously in the right flank. When the tumors were about 25 mm^2, ATRA treatment was started. 10 mg/Kg ATRA was administered to mice intra-peritoneally (i.p.) every alternate day until termination of the experiment. DMSO-treated mice were used as controls. The mice were monitored for signs of drug toxicity such as weight-loss, lethargy, skin lesions and diarrhea. The tumors were measured every 3 days, and the mice were sacrificed when the tumors were about 400 mm^2. For NK depletion experiments, 6-week old B6 nude mice (B6.Cg-Foxn1nu/J) were purchased from The Jackson Laboratory. NK depletion was performed by injecting mice with 200 μg of anti-NK1.1 antibody (Biolegend) i.p. on the day ATRA treatment was started. Mice injected with 200 μg of an isotype antibody were used as controls. Mice were bled and evaluated for circulating NKs by flow cytometry.
ATRA promotes tumor stasis in IDH mutant tumor-bearing mice. To determine the value of ATRA as a therapeutic modality, its anti-tumor efficacy in vivo was evaluated. […] Tumors were measured every 3 days. […] Resected tumors from ATRA or DMSO-treated mice were digested to obtain single cell suspensions and assessed for killing by human and mouse NK cells ex vivo.

Structure (SMILES): CC1=C(/C=C/C(C)=C/C=C/C(C)=C/C(=O)O)C(C)(C)CCC1 [ATRA, all-trans retinoic acid]
- MDSCs and monocytes in TILs (IDH mutant tumors): lower MDSCs and monocytes
- NKs in TILs (IDH mutant tumors): higher number
- infiltration of immune cells overall (TILs) (IDH mutant tumors): higher infiltration of immune cells overall
- macrophages in TILs (IDH mutant tumors): higher number of macrophages
- levels of CXCL12 ([1]; ATRA-treated IDH mutant cells vs DMSO-treated controls): lower levels of CXCL12
- CCL2 production ([1]; supernatants of ATRA- or DMSO-treated WT and IDH mutant cultures): CCL2 production was only observed in ATRA treated IDH mutant cells
- ex vivo killing by human natural killer cells [2]: more susceptible to killing
- ex vivo killing by mouse natural killer cells [2]: more susceptible to killing
- killing by NK cells incubated with NKG2D blocking antibody (IDH mutant cells; ATRA-treated IDH mutant cells): failed to recognize and kill ATRA-treated IDH mutant cells, reducing killing to baseline levels
- killing by NK-92 cells (IDH mutant cells; IDH mutant cells, 1 μM ATRA 48 hours, 10:1 E:T ratio, vs DMSO-treated controls): significantly more susceptible to killing by NK-92 cells
- tumor growth ([3]; 10 mg/kg every other day for 21 days, vs DMSO (vehicle)-treated mice and mice with WT tumors): significantly slower tumor growth
- ex vivo expression of ULBP1 and ULBP3 in tumors ([3]; ATRA-treated IDH mutant tumors (data not shown)): increased ex vivo expression of ULBP1 and ULBP3
